Test results reported in PubChem BioAssay (NCI).
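Method: 48-hour compound exposure of cells in 96-well plates, five concentrations, linear interpolation of endpoints. At the GI50, growth is halved. TGI marks complete inhibition of growth.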

What was measured:
Assay in all cases: NCI tumour cell line growth inhibition, 48 h
P388 leukemia = system: P388 leukemia
P388/ADR leukemia = system: P388/ADR leukemia
DMS 273 small cell lung = system: DMS 273 small cell lung
SN12K1 renal = system: SN12K1 renal
M19-MEL melanoma = system: M19-MEL melanoma
XF 498 CNS = system: XF 498 CNS
LXFL 529 NSCLC = system: LXFL 529 NSCLC
MDA-N = system: MDA-N
RXF-631 renal = system: RXF-631 renal

Compound | TGI (DMS 273 small cell lung) [µM] | TGI (M19-MEL melanoma) [µM] | TGI (XF 498 CNS) [µM] | TGI (LXFL 529 NSCLC) [µM] | TGI (MDA-N) [µM] | other results
Cc1nc2ccccc2c(=O)n1CC(=O)O | > 100 | > 100 | > 100 |  |  | TGI (P388 leukemia): > 100 µM; TGI (P388/ADR leukemia): > 100 µM; TGI (SN12K1 renal): > 100 µM
CCOc1ccc2c(ccc(/C=C\c3cc(C)c4cccnc4c3O)[n+]2C)c1 |  | > 100 |  | 14 |  | 
CC(=O)O[C@H]1CC[C@@]2(C)C(=CC[C@@H]3[C@@H]2CC[C@]2(C)C(=N/O)/C(=C/c4ccc([N+](=O)[O-])cc4)C[C@@H]32)C1 |  |  |  |  | > 100 | 
CC(C)=CC(=O)OC1C2C(C)C(=O)OC2C(O)C(C)C2C=CC(=O)C21C (stereo not given) | 8.85 | 8.42 | 9.77 |  |  | TGI (P388 leukemia): 1.29 µM; TGI (P388/ADR leukemia): 4.01 µM; TGI (SN12K1 renal): 6.28 µM
C[C@]12C=CC(=O)C=C1CC[C@@H]1[C@@H]2C(=O)C[C@@]2(C)[C@H]1CC[C@]2(O)C(=O)CO |  |  |  |  | > 100 | 
Cn1cc(C[C@@H](N)C(=O)O)c2ccccc21 |  |  |  |  | > 100 | 
O=C(O)c1cc(=O)[nH]c(=S)[nH]1 |  |  |  |  | > 100 | 
CN1C2C=C(c3ccccc3)CC1CC2 (stereo not given) |  | > 100 | > 100 | > 100 |  | 
COc1c2c(cc3c(CCc4ccccc4)cc(=O)oc13)CCC(C)(C)O2 | > 100 | > 100 |  | > 100 |  | 
CCCCN(CCCC)CCCCNc1c(C)cnc2cc(Cl)ccc12 |  | > 100 | 28.6 | > 100 |  | TGI (RXF-631 renal): 33.5 µM
CC(/C=C/c1ccc([N+](=O)[O-])o1)=N/N1CC(CN2CCOCC2)OC1=O (stereo not given) |  |  |  |  | 35.6 | 
c1ccc2c(c1)nc1n2CSC1 | > 100 | > 100 | > 100 | > 100 |  | TGI (RXF-631 renal): > 100 µM
CCOP(=O)(OCC)C(Cc1ccc(OC)c(OC)c1)N=C(c1ccccc1)c1ccccc1 (stereo not given) |  |  |  |  | > 100 | 
O=C1CN2C(Cl)(Cl)C2(c2ccccc2)c2cc(Cl)ccc2N1CC(F)(F)F (stereo not given) | 72.7 | > 100 |  |  |  | 
[C-]#[O+].[Cl][Sn]([Cl])[Cl].[Cl][Sn]([Cl])[Cl].[Pt].c1ccncc1 | > 100 |  |  |  |  | GI50 (P388 leukemia): 33.4 µM; TGI (P388 leukemia): > 100 µM; GI50 (P388/ADR leukemia): 35.4 µM; TGI (P388/ADR leukemia): > 100 µM; GI50 (SN12K1 renal): > 75.6 µM; TGI (SN12K1 renal): > 100 µM
Cc1cc2c(cc1C)[n+](=O)c(C(=O)N1CCN(c3ccc([N+](=O)[O-])cc3)CC1)c(C)n2[O-] |  |  |  |  | > 100 | 
CC1=C[C@]2(CC(C)C3C(CC4(C)C5CCC6C(C)(C)C(=O)CC[C@@]67C[C@@]57CC[C@]34C)O2)OC1=O (stereo not given in full) | 32.6 |  | 30 | > 100 |  | TGI (RXF-631 renal): 30.5 µM
O=C(Nc1ccc(Cl)cc1)/C(Cc1cccc[n+]1[O-])=N\Nc1ccc([N+](=O)[O-])cc1[N+](=O)[O-] | > 100 | > 100 |  | > 100 |  | TGI (RXF-631 renal): > 100 µM
COc1cc(C(N)=O)cc(NC(=O)/C=C/c2ccccc2)c1OC |  |  |  |  | > 100 | 
Cc1ccc(S(=O)(=O)Oc2cc(S(=O)(=O)O)cc3cc(S(=O)(=O)O)cc(N)c23)cc1 |  |  |  |  | > 100 | 
CC1(C)CCc2cc3c(-c4ccccc4)cc(=O)oc3cc2O1 | > 100 | > 100 | > 100 | > 100 |  | TGI (RXF-631 renal): > 100 µM
O=C1Nc2ccccc2Nc2nc3cccccc-3c21 | > 100 | > 100 | > 100 | > 100 |  | 
CO/N=C1/c2sccc2[C@H](NC(=O)C(F)(F)F)[C@@H]1O |  |  |  |  | > 100 | 
